# According to patent US20260297042A1, “BIARYLAMIDE DERIVATIVES AND THEIR USE AS PKMYT1 INHIBITORS” (CANCER RESEARCH TECHNOLOGY LIMITED, priority 2023, published 2026):
# What was measured:
# [1] = target: T1, Human PKMYT1 (Homo sapiens, UniProt Q99640); test: PKMYT1 biochemical ADP-Glo enzymatic assay; conditions: ADP-Glo
# T1 construct: Human PKMYT1 75-362 was cloned as a TEV cleavable 6xHis fusion; 6xHis (TEV cleavable) (cleaved yes); made in house; host or cells: bacterial cells
# T1 sequence (Q99640 75-362): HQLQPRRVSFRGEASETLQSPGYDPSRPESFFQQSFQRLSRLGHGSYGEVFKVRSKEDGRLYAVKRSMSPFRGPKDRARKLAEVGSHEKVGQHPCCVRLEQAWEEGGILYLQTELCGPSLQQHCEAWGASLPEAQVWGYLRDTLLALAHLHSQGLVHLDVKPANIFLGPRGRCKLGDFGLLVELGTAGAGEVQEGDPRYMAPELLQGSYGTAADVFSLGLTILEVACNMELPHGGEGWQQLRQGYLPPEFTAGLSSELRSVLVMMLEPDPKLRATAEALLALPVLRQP
# Procedure, shortened: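 Compounds were titrated over 10 points (3-fold steps), then 15 nM purified PKMYT1 kinase domain (aa 75-362) and 500 µM ATP were added in pH 7.5 HEPES buffer. After 60 min at 26 °C, remaining ATP was depleted and ADP converted to luminescence for IC50 fitting.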
# [2] = target: T2, WEE1 (Homo sapiens, UniProt P30291); test: Selectivity versus WEE1 assay (ADP-Glo enzymatic assay); type: biochemical; conditions: for IC50: ADP-Glo; for PKMYT1 vs. WEE1 selectivity: fold difference in selectivity for PKMYT1 over WEE1
# T2 construct: purchased Thermo Fisher PR7373A
# T2 sequence (P30291 whole entry): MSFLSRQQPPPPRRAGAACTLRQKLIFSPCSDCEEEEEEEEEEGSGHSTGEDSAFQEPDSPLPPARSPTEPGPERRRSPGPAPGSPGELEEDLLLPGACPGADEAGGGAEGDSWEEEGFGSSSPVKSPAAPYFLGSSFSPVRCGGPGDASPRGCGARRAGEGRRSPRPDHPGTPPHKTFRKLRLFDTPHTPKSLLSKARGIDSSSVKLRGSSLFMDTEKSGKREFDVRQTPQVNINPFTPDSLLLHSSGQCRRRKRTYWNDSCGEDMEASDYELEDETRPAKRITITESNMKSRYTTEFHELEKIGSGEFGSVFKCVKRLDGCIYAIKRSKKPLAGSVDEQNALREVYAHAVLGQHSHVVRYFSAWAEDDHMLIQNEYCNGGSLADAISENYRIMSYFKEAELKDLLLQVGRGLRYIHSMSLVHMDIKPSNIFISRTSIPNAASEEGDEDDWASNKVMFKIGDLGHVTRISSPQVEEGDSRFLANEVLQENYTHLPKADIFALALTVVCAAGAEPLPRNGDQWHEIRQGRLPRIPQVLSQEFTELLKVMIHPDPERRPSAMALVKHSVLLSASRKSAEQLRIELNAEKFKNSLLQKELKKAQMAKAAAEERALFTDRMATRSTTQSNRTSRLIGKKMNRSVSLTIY
# Procedure, shortened: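 Compounds were pre-dispensed, enzyme (15 nM final) was added in pH 7.5 HEPES buffer, and ATP ([…]) then started a 60 min incubation at 26° C. Afterwards ADP-Glo reagents were added in turn and luminescence was measured to derive IC50 values.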
# [3] = target: T3, Cellular PKMYT1 Biomarker CDK1 pT14 (Homo sapiens, UniProt Q99640); test: Inhibition of cellular PKMYT1 biomarker CDK1 pT14 in OVCAR 3 cells (immunoblot); type: cell-based; conditions: 20 hours incubation
# T3 construct: read-out CDK1 phospho-T14 immunoblot
# T3 sequence (Q99640 1-499): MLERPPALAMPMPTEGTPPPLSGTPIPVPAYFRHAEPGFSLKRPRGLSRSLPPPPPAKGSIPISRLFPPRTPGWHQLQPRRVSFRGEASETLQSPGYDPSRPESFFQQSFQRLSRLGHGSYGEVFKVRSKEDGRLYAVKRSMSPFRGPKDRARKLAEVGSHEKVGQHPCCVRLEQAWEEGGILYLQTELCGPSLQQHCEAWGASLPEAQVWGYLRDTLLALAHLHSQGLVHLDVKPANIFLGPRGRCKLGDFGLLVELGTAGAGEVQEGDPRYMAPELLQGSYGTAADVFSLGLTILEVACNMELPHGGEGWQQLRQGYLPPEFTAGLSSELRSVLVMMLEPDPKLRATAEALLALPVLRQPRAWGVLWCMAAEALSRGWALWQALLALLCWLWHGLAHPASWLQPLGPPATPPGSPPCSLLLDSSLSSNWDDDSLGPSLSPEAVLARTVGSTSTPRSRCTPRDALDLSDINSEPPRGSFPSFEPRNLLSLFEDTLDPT
# Procedure: To determine compound PKMYT1 IC50 in a cellular assay, OVCAR 3 cells were incubated at 37° C. in 5% CO2 atmosphere. The cells were maintained in RPMI medium supplemented with 20% foetal bovine serum, 1X non essential amino acids, 1 mM sodium pyruvate, Glutamax and insulin. Cells were seeded into 12-well plates at low density (50,000-200,000 cells per well), grown to confluence (~350-400,000 cells per well) and then treated with a range of concentrations of PKMYT1 inhibitors. The cells were incubated 20 hours and then harvested into 1X Laemmli Sample Buffer (BIORAD) without 2-mercaptoethanol, heated to 95° C. for 5 min, centrifuged and sonicated using a microprobe for 15 sec, 21W to shear the DNA.
# The samples were analysed by immunoblot on a Jess Automated Western Blot System (BioTechne). The samples were separated using the 12-230 kDa Separation Module (BioTechne,) and blotted using an anti-CDK1 phospho T14 antibody (Abcam, #ab58509) and an anti-vinculin antibody (Abcam, #126002). Specific binding was detected by fluorescence using the Anti-Rabbit Detection Module (BioTechne, #DM-001), quantified using Compass for Simple Western software, and IC50 values were calculated by regression analysis in GraphPad Prism.
# [4] = test system: OVCAR 3 cells; test: Cancer cell line proliferation assay, ATP-based cell viability (Cell Titre Glow), OVCAR 3 (CCNE1-amplified); conditions: for Selectivity ratio KYSE30 Gl50 vs. OVCAR3 Gl50: KYSE30 (normal CCNE1) GI50 vs. OVCAR 3 (CCNE1-amplified) GI50
# Procedure, shortened: (§1)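 Proliferation of KYSE-30 (normal CCNE1) and CCNE1-amplified OVCAR 3 ovarian cancer cells treated with PKMYT1 inhibitors, read by Cell Titre Glow luminescence. GI50 is the concentration giving 50% growth inhibition.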
# [5] = test system: KYSE-30 cells; test: Cancer cell line proliferation assay, ATP-based cell viability (Cell Titre Glow), KYSE-30 (normal CCNE1); conditions: Homo sapiens, KYSE-30 cells (normal CCNE1), concentration that achieves 50% cell growth proliferation inhibition, read-out: KYSE30 Gl50
# Procedure, shortened: as §1
# [6] = PKMYT1 kinase domain 15 nM, banded values
# [7] = 15 nM PKMYT1 kinase domain, 500 µM ATP, 60 minutes at 26° C., banded
# [8] = 15 nM WEE1, 60 minutes at 26° C., banded
# [9] = banded, ">N" = at least in this band but could be higher
compound,measurement,setting,value
"CCN(CC)C(=O)C(CO)n1cc(C)c(Nc2ncc(C(=O)Nc3c(C)ccc(O)c3C)s2)n1 (stereo not shown) [BAA-576, 2-((1-(1-(diethylamino)-3-hydroxy-1-oxopropan-2-yl)-4-methyl-1H-pyrazol-3-yl)amino)-N-(3-hydroxy-2,6-dimethylphenyl)thiazole-5-carboxamide]",IC50,[1]; [6],< 50 nM
same,IC50,"[2]; WEE1 15 nM, banded values",1000 to 11000 nM
same,PKMYT1 vs. WEE1 selectivity,[2]; banded,X (100-<1000 fold)
same,IC50,[3],< 100 nM
"Cc1ccc(O)c(C)c1NC(=O)c1cnc(Nc2cccc(F)n2)s1 [BAA-406, 2-((6-fluoropyridin-2-yl)amino)-N-(3-hydroxy-2,6-dimethylphenyl)thiazole-5-carboxamide]",IC50,[1]; [6],< 50 nM
same,IC50,"[2]; WEE1 15 nM, banded values",1000 to 11000 nM
same,PKMYT1 vs. WEE1 selectivity,[2]; banded,X (100-<1000 fold)
same,IC50,[3],< 100 nM
"Cc1ccc(O)c(C)c1NC(=O)c1cnc(Nc2nn(C)cc2Br)s1 [BAA-473, 2-((4-bromo-1-methyl-1H-pyrazol-3-yl)amino)-N-(3-hydroxy-2,6-dimethylphenyl)thiazole-5-carboxamide]",IC50,[1]; [6],< 50 nM
same,IC50,"[2]; WEE1 15 nM, banded values",1000 to 11000 nM
same,PKMYT1 vs. WEE1 selectivity,[2]; banded,X (100-<1000 fold)
same,IC50,[3],100 to 1000 nM
"Cc1cn(CC(F)F)nc1Nc1nnc(C(=O)Nc2c(C)ccc(O)c2C)s1 [BAA-464, 5-((1-(2,2-Difluoroethyl)-4-methyl-1H-pyrazol-3-yl)amino)-N-(3-hydroxy-2,6-dimethylphenyl)-1,3,4-thiadiazole-2-carboxamide]",IC50,[1]; [6],< 50 nM
same,IC50,"[2]; WEE1 15 nM, banded values",> 11000 nM
same,PKMYT1 vs. WEE1 selectivity,[2]; banded,Y (1000-5000 fold)
same,IC50,[3],100 to 1000 nM
"Cc1cccnc1Nc1ncc(C(=O)Nc2c(C)ccc(O)c2C)s1 [BAA-415, N-(3-hydroxy-2,6-dimethylphenyl)-2-((3-methylpyridin-2-yl)amino)thiazole-5-carboxamide]",IC50,[1]; [6],< 50 nM
same,IC50,"[2]; WEE1 15 nM, banded values",> 11000 nM
same,PKMYT1 vs. WEE1 selectivity,[2]; banded,X (100-<1000 fold)
same,IC50,[3],< 100 nM
"COc1cccc(Nc2ncc(C(=O)Nc3c(C)ccc(O)c3C)s2)n1 [BAA-416, N-(3-hydroxy-2,6-dimethylphenyl)-2-((6-methoxypyridin-2-yl)amino)thiazole-5-carboxamide]",IC50,[1]; [6],< 50 nM
same,IC50,"[2]; WEE1 15 nM, banded values",1000 to 11000 nM
same,PKMYT1 vs. WEE1 selectivity,[2]; banded,X (100-<1000 fold)
same,Selectivity ratio KYSE30 Gl50 vs. OVCAR3 Gl50,[4],Y (>20 fold)
same,GI50,[5],500 to 5000 nM
"Cc1ccc(O)c(C)c1NC(=O)c1cnc(Nc2nn(CCBr)cc2Cl)s1 [BAA-574, 2-((1-(2-Bromoethyl)-4-chloro-1H-pyrazol-3-yl)amino)-N-(3-hydroxy-2,6-dimethylphenyl)thiazole-5-carboxamide]",IC50,[1]; [6],< 50 nM
same,IC50,"[2]; WEE1 15 nM, banded values",1000 to 11000 nM
same,PKMYT1 vs. WEE1 selectivity,[2]; banded,W (10-<100 fold)
same,Selectivity ratio KYSE30 Gl50 vs. OVCAR3 Gl50,[4],X (3-20 fold)
same,GI50,[5],500 to 5000 nM
"COC[C@@H]1CCCN1C(=O)Cn1cc(C)c(Nc2ncc(C(=O)Nc3c(C)ccc(O)c3C)s2)n1 [BAA-606, (S)-N-(3-hydroxy-2,6-dimethylphenyl)-2-((1-(2-(2-(methoxymethyl)pyrrolidin-1-yl)-2-oxoethyl)-4-methyl-1H-pyrazol-3-yl)amino)thiazole-5-carboxamide]",IC50,[1]; [6],< 50 nM
same,IC50,"[2]; WEE1 15 nM, banded values",1000 to 11000 nM
same,PKMYT1 vs. WEE1 selectivity,[2]; banded,X (100-<1000 fold)
same,Selectivity ratio KYSE30 Gl50 vs. OVCAR3 Gl50,[4],Y (>20 fold)
same,GI50,[5],500 to 5000 nM
"Cc1ccc(O)c(C)c1NC(=O)c1cnc(Nc2ccn(C3CCC3)n2)s1 [BAA-013, 2-[(1-cyclobutylpyrazol-3-yl)amino]-N-(3-hydroxy-2,6-dimethyl-phenyl)thiazole-5-carboxamide]",IC50,[1]; [7],< 50 nM
same,IC50,[2]; [8],1000 to 11000 nM
same,PKMYT1 vs. WEE1 selectivity,[2]; [9],W (10-<100 fold)
same,GI50,"[4]; Homo sapiens, OVCAR 3 cells (CCNE1-amplified), concentration that achieves 50% cell growth proliferation inhibition, read-out: OVCAR 3 Gl50",500 to 5000 nM
same,Selectivity ratio KYSE30 Gl50 vs. OVCAR3 Gl50,[4],X (3-20 fold)
same,GI50,[5],> 5000 nM
"Cc1ccc(O)c(C)c1NC(=O)c1cnc(Nc2cc(C)n(C3CCCC3)n2)s1 [BAA-232, 2-((1-cyclopentyl-5-methyl-1H-pyrazol-3-yl)amino)-N-(3-hydroxy-2,6-dimethylphenyl)thiazole-5-carboxamide]",IC50,[1]; [7],< 50 nM
same,IC50,[2]; [8],1000 to 11000 nM
same,PKMYT1 vs. WEE1 selectivity,[2]; [9],W (10-<100 fold)
same,Selectivity ratio KYSE30 Gl50 vs. OVCAR3 Gl50,[4],Y (>20 fold)
same,GI50,[5],> 5000 nM
"Cc1cn(CC(C)O)nc1Nc1ncc(C(=O)Nc2c(C)ccc(O)c2C)s1 (stereo not shown) [BAA-499, N-(3-hydroxy-2,6-dimethylphenyl)-2-((1-(2-hydroxypropyl)-4-methyl-1H-pyrazol-3-yl)amino)thiazole-5-carboxamide]",IC50,[1]; [6],< 50 nM
same,IC50,"[2]; WEE1 15 nM, banded values",1000 to 11000 nM
same,PKMYT1 vs. WEE1 selectivity,[2]; banded,X (100-<1000 fold)
same,Selectivity ratio KYSE30 Gl50 vs. OVCAR3 Gl50,[4],Y (>20 fold)
same,GI50,[5],> 5000 nM
"Cc1cn(-c2cn(C)nc2C)nc1Nc1ncc(C(=O)Nc2c(C)ccc(O)c2C)s1 [BAA-392, N-(3-hydroxy-2,6-dimethylphenyl)-2-((1′, 3′,4-trimethyl-1′H-[1,4′-bipyrazol]-3-yl)amino)thiazole-5-carboxamide]",IC50,[1]; [7],< 50 nM
same,IC50,[2]; [8],1000 to 11000 nM
same,PKMYT1 vs. WEE1 selectivity,[2]; [9],X (100-<1000 fold)
same,Selectivity ratio KYSE30 Gl50 vs. OVCAR3 Gl50,[4],Y (>20 fold)
same,GI50,[5],> 5000 nM
"Cc1cn(-c2ccncc2)nc1Nc1ncc(C(=O)Nc2c(C)ccc(O)c2C)s1 [BAA-372, N-(3-hydroxy-2,6-dimethylphenyl)-2-((4-methyl-1-(pyridin-4-yl)-1H-pyrazol-3-yl)amino)thiazole-5-carboxamide]",IC50,[1]; [7],< 50 nM
same,IC50,[2]; [8],50 to 1000 nM
same,PKMYT1 vs. WEE1 selectivity,[2]; [9],W (10-<100 fold)
same,Selectivity ratio KYSE30 Gl50 vs. OVCAR3 Gl50,[4],Y (>20 fold)
same,GI50,[5],> 5000 nM
"Cc1ccc(O)c(C)c1NC(=O)c1cnc(Nc2ncnc3sccc23)s1 [BAA-447, N-(3-hydroxy-2,6-dimethylphenyl)-2-(thieno[2,3-d]pyrimidin-4-ylamino)thiazole-5-carboxamide]",IC50,[1]; [6],< 50 nM
same,IC50,"[2]; WEE1 15 nM, banded values",1000 to 11000 nM
same,PKMYT1 vs. WEE1 selectivity,[2]; banded,X (100-<1000 fold)
same,Selectivity ratio KYSE30 Gl50 vs. OVCAR3 Gl50,[4],Y (>20 fold)
same,GI50,[5],> 5000 nM
"Cc1ccc(O)c(C)c1NC(=O)c1cnc(Nc2nn(C)c(C)c2C)s1 [BAA-128, N-(3-hydroxy-2,6-dimethyl-phenyl)-2-[(1,4,5-trimethylpyrazol-3-yl)amino]thiazole-5-carboxamide]",IC50,[1]; [7],50 to 1000 nM
same,IC50,[2]; [8],1000 to 11000 nM
same,PKMYT1 vs. WEE1 selectivity,[2]; [9],X (100-<1000 fold)
same,Selectivity ratio KYSE30 Gl50 vs. OVCAR3 Gl50,[4],Y (>20 fold)
same,GI50,[5],> 5000 nM
"Cc1ccc(O)c(C)c1NC(=O)c1cnc(Nc2cccc(N3CCC(N)CC3)n2)s1 [BAA-274, 2-((6-(4-aminopiperidin-1-yl)pyridin-2-yl)amino)-N-(3-hydroxy-2,6-dimethylphenyl)thiazole-5-carboxamide]",IC50,[1]; [7],< 50 nM
same,IC50,[2]; [8],1000 to 11000 nM
same,PKMYT1 vs. WEE1 selectivity,[2]; [9],W (10-<100 fold)
same,Selectivity ratio KYSE30 Gl50 vs. OVCAR3 Gl50,[4],Y (>20 fold)
same,GI50,[5],500 to 5000 nM
